Like-named read-outs stand apart in the source and are kept apart here.
Legend:
5-HT1A receptors [1] = biological target: T1, 5-HT1A receptors (Rattus norvegicus, UniProt P19327); experiment: Corticosterone secretion (CS), plasma, agonist and antagonist activity; format: in vivo, male Wistar rats; design: from tissue; host or cells: whole animal, male Wistar rat (in vivo); conditions: for Corticosterone secretion M.E.D.: agonist: induction of CS, s.c., minimum effective dose; for ED50: rat, sc, 1 h, antagonist: inhibition of CS induced by 8-OH-DPAT 0.16 mg/kg s.c., compound s.c. 60 min before test, read-out: Corticosterone secretion ID50 (95% C.L.)
T1 sequence (P19327 1-422): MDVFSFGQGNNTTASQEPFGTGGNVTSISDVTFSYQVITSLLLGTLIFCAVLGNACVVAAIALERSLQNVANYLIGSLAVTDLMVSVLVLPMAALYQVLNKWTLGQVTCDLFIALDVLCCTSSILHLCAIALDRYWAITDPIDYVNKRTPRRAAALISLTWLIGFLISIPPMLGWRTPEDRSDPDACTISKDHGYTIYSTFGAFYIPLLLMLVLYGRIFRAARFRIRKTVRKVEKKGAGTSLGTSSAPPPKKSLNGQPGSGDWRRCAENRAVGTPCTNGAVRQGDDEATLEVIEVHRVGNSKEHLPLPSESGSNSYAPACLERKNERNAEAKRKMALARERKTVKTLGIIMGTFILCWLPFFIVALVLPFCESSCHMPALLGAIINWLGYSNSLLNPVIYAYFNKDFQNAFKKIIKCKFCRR
Procedure: (§1) The tests were carried out on male Wistar rats weighing from 200 to 220 g which had free access to food and drinking water, in standard cages.
(§2) The animals are housed individually for the hypothermia, corticosterone secretion and flat body posture tests, and in groups of three for the tail flick test.
(§3) The laboratory temperature is kept at 21°±1° C., with 60 ±5% humidity. The rats are subjected to a light/dark cycle of 12 hours/12 hours (the light cycle commencing at 7.30 a.m.).
(§4) a/ General procedure for tests of agonist and antagonist activities on 5-HT1A receptors.
(§5) The test compounds were administered subcutaneously (s.c.) 60 minutes before the start of the test, that is to say 30 minutes before the vehicle (agonist responses) or 8-OH-DPAT (antagonist responses).
(§6) In all the tests, the solvent is used in parallel as the control. The animals were allowed to rest in their cages during the time between the injections and evaluation.
(§7) For the agonist studies, the solvent was administered at a dose of 1 ml/kg s.c. 30 minutes before the start of the test. For the antagonist studies, doses of 8-OH-DPAT inducing sub-maximal responses were chosen, i.e. doses of 0.63, 0.16, 0.16 and 0.16 mg/kg s.c. for the tail flick test, the flat body posture test, the corticosterone secretion test and the hypothermia test, respectively.
(§8) The same animals were employed for the evaluation of the effect of the test compounds on the FBP and for the determination of the plasma levels of CS. All the tests were carried out in the morning between 10.30 and 12.30, i.e. when the cicardian levels of CS are at their lowest.
(§9) The presence of FBP is defined by a characteristic posture of the animal. The animal is then in a position of ventral decubitus with the hind limbs clearly in extension. 5 minutes after observation of FBP, the animals are decapitated and the trunk blood is collected in chilled tubes containing 50 μl of a 10% EDTA solution. After centrifugation at 4000 rpm, the plasma is removed and stored at -30° C. until assay.
CS was determined using a radio-competitive assay for a CS-binding protein in plasma: transcortin. The latter is obtained from monkey serum. Separation of the CS-transcortin complexes from free CS was effected by means of a solution of dextran and active charcoal. The detection limit was 50 pg/tube. Intra- and inter-assay variations were 5 and 15%, respectively [cf. Rivet J. M. et al., Eur. J. Pharmacol., 183, 634-635 (1990)].
Since the base levels of CS in plasma are never zero, the following formula was used to calculate the percentage inhibition of plasmatic CS induced by 8-OH-DPAT: [formula]
(§10) In general, after variance analysis, the results are subjected to Dunnett's test. Results are regarded as significant if p<0.05.
(§11) The doses of the test compounds are all expressed in terms of the base. Unless otherwise mentioned, all the compounds were dissolved in sterile water (to which a few drops of lactic acid are added, if necessary) and administered at a volume of 1 ml/kg s.c..

5-HT1A receptors [2] = biological target: T1, 5-HT1A receptors; experiment: Flat body posture (FBP), agonist response and antagonism of 8-OH-DPAT; format: in vivo, male Wistar rats; design: from tissue; host or cells: whole animal, male Wistar rat (in vivo); conditions: sc
Procedure: as §1, §2, §3, §4, §5, §6, §7, §8
25 minutes after the treatment (i.e. 5 minutes before decapitation), the animals are observed in their cages and the presence or absence of FBP is noted.
as §9, §10
For the dose-response for induction and inhibition of FBP, the effective doses 50 (ED50) (doses at which 50% of the animals show a response) were calculated by the method of Litchfield and Wilcoxon.
as §11

5-HT1A receptors [3] = biological target: T1, 5-HT1A receptors; experiment: Body temperature (hypothermia), agonist and antagonist activity; format: in vivo, male Wistar rats; design: from tissue; host or cells: whole animal, male Wistar rat (in vivo); conditions: for Hypothermia M.E.D.: agonist: induction of hypothermia, s.c., minimum effective dose; for ED50: rat, sc, 1 h, antagonist: inhibition of hypothermia induced by 8-OH-DPAT 0.16 mg/kg s.c., compound s.c. 60 min before test, read-out: Hypothermia ID50 (95% C.L.)
Procedure: as §1, §2, §3, §4, §5, §6, §7
The rats are immobilised and a lubricated digital thermometer (Thermistoprobe from Testotherm, Basle, Switzerland) is inserted into the rectum to a depth of 5 cm. 30 seconds after insertion, the temperature is read off a digital scale. The percentage inhibition is calculated with the aid of the formula mentioned above.
as §10, §11

5-HT1A receptors [4] = biological target: T1, 5-HT1A receptors; experiment: In vitro binding test, 5-HT1A receptors, [3]H-8-OH-DPAT, rat hippocampus membranes; design: Hippocampus from the brains of decapitated rats; from tissue; host or cells: rat hippocampus membranes (male Wistar); species or system rat (male Wistar)
Procedure: Hippocampus from the brains of decapitated rats was immediately frozen on dry ice and then stored at -80° C. until preparation of membranes. The tissue was homogenised at 4° C. in the appropriate buffer using a Polytron (Brinkman Instruments - Lucerne - Switzerland) and centrifuged at 20,000 rpm.
Incubation was carried out at 25° C. for 30 minutes. Non-specific binding was defined by 10 μM of 5-HT. The tests were terminated by rapid filtration by means of a Brandel harvester over glass-fibre filters pretreated with 0.1% polyethyleneimine.
The inhibitory concentration 50 values (IC50) were determined according to method 8 of Tallarida R. J. and Murray R. B., Manual of pharmacological calculations with computer programs, Springer Verlag, N.Y. (1987).
The pKi was calculated according to the formula [formula] where [L] is the concentration of the hot ligand ([3]H-8-OH-DPAT, 0.4 nM) and Kd is the apparent dissociation constant determined from saturation experiments.
The test substances were dissolved in the incubation buffer.

5-HT1A receptors [5] = biological target: T1, 5-HT1A receptors; experiment: Spontaneous tail flick test (STF), agonist and antagonist activity; format: in vivo, male Wistar rats; design: from tissue; host or cells: whole animal, male Wistar rat (in vivo); conditions: for ED50: rat, sc, 1 h, antagonist: inhibition of STF induced by 8-OH-DPAT 0.63 mg/kg s.c., compound s.c. 60 min before test, read-out: Spontaneous tail flicks ID50 (95% C.L.); for Spontaneous tail flicks M.E.D.: agonist: induction of STF, s.c., minimum effective dose
Procedure: as §1, §2, §3, §4, §5, §6, §7
Tail flicks were determined in animals restrained in horizontal, opaque plastics cylinders, the animals' tails hanging freely over the edge of the laboratory bench. After a 5-minute adaptation period, the number of movements made in 5 minutes is recorded. One STF is defined as the raising of the tail to a level higher than the level of the body axis [Millan M. J. et al., J. Pharmacol. Exp. Ther., 256, 973-982 (1990)].
as §10, §11

[6] = 1 h, read-out: Flat body posture ED50 (95% C.L.), antagonism of 8-OH-DPAT, inhibition of FBP, 8-OH-DPAT 0.16 mg/kg s.c., compound s.c. 60 min before test
[7] = induction of FBP, s.c., dose at which 50% of the animals show a response, read-out: Flat body posture ED50 (95% C.L.), agonist response
[8] = hot ligand [3]H-8-OH-DPAT 0.4 nM, rat hippocampus membranes, 25° C., 30 minutes, read-out: Affinity (pKi) (converted)

Structure (SMILES) | Corticosterone secretion M.E.D. (5-HT1A receptors [1]) | ED50 (5-HT1A receptors [1]) | ED50 (5-HT1A receptors [2]; [6]) | ED50 (5-HT1A receptors [2]; [7]) | Hypothermia M.E.D. (5-HT1A receptors [3]) | ED50 (5-HT1A receptors [3]) | Ki (5-HT1A receptors [4]) | ED50 (5-HT1A receptors [5]) | Ki (5-HT1A receptors [4]; [8]) | Spontaneous tail flicks M.E.D. (5-HT1A receptors [5]) | Affinity (pKi) (5-HT1A receptors [4]; hot ligand [3]H-8-OH-DPAT 0.4 nM, rat hippocampus membranes, 25° C., 30 minutes)
c1ccc2c(c1)CC(CN1CCN(c3cccc4c3OCCO4)CC1)C2 [Example 14, 4-(benzodioxan-5-yl)-1-[(indan-2-yl)-methyl]-piperazine] | > 2.5 mg/kg | > 2.5 mg/kg | ≥ 2.5 mg/kg | > 2.5 mg/kg | > 10.0 mg/kg | < 2.5 mg/kg | 3.39 nM | 0.19 mg/kg |  |  | 
c1ccc2c(c1)CCC2CCCN1CCN(c2cccc3c2OCCO3)CC1 (racemic) [Example 23, (R,S)-4-(benzodioxan-5-yl)-1-[3-(indan-1-yl)-propyl]piperazine] | > 2.5 mg/kg | < 2.5 mg/kg | 0.29 mg/kg | 10 mg/kg | 5.0 mg/kg | 0.4 mg/kg |  | 0.56 mg/kg |  |  | 
c1ccc2c(c1)CCC2CN1CCN(c2cccc3c2OCCO3)CC1 (racemic) [Example 15, (R,S)-4-(benzodioxan-5-yl)-1-[(indan-1-yl)-methyl]-piperazine] | > 2.5 mg/kg | > 2.5 mg/kg | ≥ 2.5 mg/kg | > 2.5 mg/kg | 10.0 mg/kg | 1.53 mg/kg | 2 nM | 0.085 mg/kg |  |  | 
COc1cc2c(cc1OC)C(CCN1CCN(c3cccc4c3OCCO4)CC1)CC2 (racemic) [Example 19, (R,S)-4-(benzodioxan-5-yl)-1-[2-(5,6-dimethoxyindan-1-yl)-ethyl]-piperazine] |  |  |  |  |  |  |  |  | 1.48 nM |  | 
c1ccc2c(c1)CC2CCCCN1CCN(c2cccc3c2OCCO3)CC1 (racemic) [Example 8, (R,S)-4-(benzodioxan-5-yl)-1-[4-(benzocyclobutan-1-yl)-butyl]-piperazine] |  |  |  |  |  |  | 1.58 nM |  |  |  | 
c1ccc2c(c1)CC2CCCN1CCN(c2cccc3c2OCCO3)CC1 (racemic) [Example 13, (R,S)-4-(benzodioxan-5-yl)-1-[3-(benzocyclobutan-1-yl)-propyl]-piperazine] | 10.0 mg/kg | 1.27 mg/kg | 0.57 mg/kg | > 10 mg/kg | 10.0 mg/kg | 0.21 mg/kg |  | 0.13 mg/kg |  | > 10.0 mg/kg | 
COc1ccc2c(c1)C(CCN1CCN(c3cccc4c3OCCO4)CC1)C2 (racemic) [Example 16, (R,S)-4-(benzodioxan-5-yl)-1-[2-(5-methoxybenzocyclobutan-1-yl)-ethyl]-piperazine] |  |  |  |  |  |  |  |  | 1.41 nM |  | 
c1ccc2c(c1)CC2CN1CCN(c2cccc3c2OCCO3)CC1 (racemic) [Example 1, (R,S)-4-(benzodioxan-5-yl)-1-[(benzocyclobutan-1-yl)methyl]-piperazine] | > 2.5 mg/kg | < 2.5 mg/kg | 0.71 mg/kg | > 10 mg/kg | 10.0 mg/kg | 0.5 mg/kg | 1.82 nM | 0.09 mg/kg |  | > 10.0 mg/kg | 
c1ccc2c(c1)CC(CCN1CCN(c3cccc4c3OCCO4)CC1)C2 [Example 20, 4-(benzodioxan-5-yl)-1-[2-(indan-2-yl)-ethyl]-piperazine] | > 2.5 mg/kg | < 2.5 mg/kg | < 2.5 mg/kg | > 2.5 mg/kg | 10.0 mg/kg | 0.58 mg/kg |  | 0.18 mg/kg |  |  | 9.18
c1ccc2c(c1)CC2CCN1CCN(c2cccc3c2OCCO3)CC1 (racemic) [Example 2, (R,S)-4-(benzodioxan-5-yl)-1-[2-(benzocyclobutan-1-yl)-ethyl]-piperazine] | 10.0 mg/kg | 0.66 mg/kg | 0.76 mg/kg | > 20 mg/kg | 40.0 mg/kg | 0.65 mg/kg | 0.617 nM | 0.085 mg/kg |  | > 10.0 mg/kg | 
c1ccc2c(c1)CC2CCN1CCN(c2cccc3c2OCCCO3)CC1 (racemic) [Example 3, (R,S)-4-[benzo(1,5)dioxepin-6-yl]-1-[2-(benzocyclobutan-1-yl)-ethyl]-piperazine] | > 10.0 mg/kg | 2.15 mg/kg | 1.55 mg/kg | > 10 mg/kg | > 20.0 mg/kg | 1.64 mg/kg |  | 0.32 mg/kg |  | > 10.0 mg/kg | 
COc1cc2c(cc1OC)C(CCN1CCN(c3cccc4c3OCCO4)CC1)C2 (racemic) [Example 17, (R,S)-4-(benzodioxan-5-yl)-1-[2-(4,5-dimethoxybenzocyclobutan-1-yl)-ethyl]-piperazine] |  |  |  |  |  |  |  |  | 3.47 nM |  | 
C1=C(CCN2CCN(c3cccc4c3OCCO4)CC2)c2ccccc2C1 [Example 18, 4-(benzodioxan-5-yl)-1-[2-(ind-1-en-1-yl)-ethyl]-piperazine] |  |  |  |  |  |  | 0.813 nM |  |  |  | 
c1ccc2c(c1)CCC2CCN1CCN(c2cccc3c2OCCO3)CC1 (racemic) [Example 22, (R,S)-4-(benzodioxan-5-yl)-1-[2-(indan-1-yl)-ethyl]-piperazine] | > 10.0 mg/kg | 1.92 mg/kg | 1.03 mg/kg | > 10 mg/kg | > 40.0 mg/kg | 1.19 mg/kg |  | 0.74 mg/kg |  | > 10.0 mg/kg | 
